Assay results published in the supplement of paper PMC11061612.

What was measured:
[1] = test system: CAL-39 (Other Solid Carcinomas); experiment: Bliss excess, mean over the matrix (fraction); higher = more synergy
In short: (§1)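 Bliss excess equals the observed combination effect minus the expected value EA + EB − EA·EB, where EA and EB are the effects of each agent alone. Combination Emax is the second-highest inhibition within the matrix. Inhibition was scaled from CellTiter-Glo 2.0 luminescence, with 0 set by vehicle wells and 1 by blank wells, after 72 hours of two-drug dosing of cells plated in 1536-well plates.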

[2] = test system: D-283MED (Other Solid Carcinomas); experiment: as above
In short: as §1

[3] = test system: EKVX (Non-Small Cell Lung Carcinoma); experiment: as above
In short: as §1

[4] = test system: FU-OV-1 (Ovarian Carcinoma); experiment: as above
In short: as §1

[5] = test system: HCT-116 (Colorectal Carcinoma); experiment: as above
In short: as §1

[6] = test system: NCI-H1688 (Small Cell Lung Carcinoma); experiment: as above
In short: as §1

[7] = test system: P31-FUJ (Acute Myeloid Leukemia); experiment: as above
In short: as §1

[8] = test system: SK-UT-1 (Other Solid Carcinomas); experiment: as above
In short: as §1

[9] = test system: SLVL (B-Cell Non-Hodgkin's Lymphoma); experiment: as above
In short: as §1

[10] = test system: SW48 (Colorectal Carcinoma); experiment: as above
In short: as §1

Saos-2 (Osteosarcoma) = experiment: as above
In short: as §1

[11] = test system: U-118-MG (Low Grade Glioma); experiment: as above
In short: as §1

[12] = test system: WSU-DLCL2 (B-Cell Non-Hodgkin's Lymphoma); experiment: as above
In short: as §1

[13] = test system: FU-OV-1 (Ovarian Carcinoma); experiment: combination Emax (second highest fraction inhibited in the dose matrix, 72 h); higher = more inhibition; extreme values may be limits of the assay
In short: as §1

Row | SMILES | Bliss excess [1] | Bliss excess [2] | Bliss excess [3] | Bliss excess [4] | Bliss excess [5] | Bliss excess [6] | Bliss excess [7] | Bliss excess [8] | Bliss excess [9] | Bliss excess [10] | Bliss excess (Saos-2 (Osteosarcoma)) | Bliss excess [11] | Bliss excess [12] | combination Emax [13]
1 | CN(CCO)CC[C@H](CSc1ccccc1)Nc1ccc(S(=O)(=O)NC(=O)c2ccc(N3CCC([C@@H](O)c4ccccc4-c4ccc(Cl)cc4)CC3)cc2)cc1S(=O)(=O)C(F)(F)F [AZD4320] + C[C@@H](Nc1cc(F)cc(F)c1)c1cc(C(=O)N(C)C)cc2c(=O)cc(N3CCOCC3)oc12 [AZD8186] (first compound max 1 µM, 7x7, partner max 3 µM) | 0.0175 | 0.0429 | -0.0127 | -0.0284 | 0.0266 | 0.0259 | 0.019 | 0.002 | 0.0476 | -0.0048 | -0.0258 | 0.0018 | 0.0852 | 0.558
2 | CN(CCO)CC[C@H](CSc1ccccc1)Nc1ccc(S(=O)(=O)NC(=O)c2ccc(N3CCC([C@@H](O)c4ccccc4-c4ccc(Cl)cc4)CC3)cc2)cc1S(=O)(=O)C(F)(F)F [AZD4320] + Cn1cnc2c(F)c(Nc3ccc(Br)cc3Cl)c(C(=O)NOCCO)cc21 [Selumetinib] (first compound max 1 µM, 7x7, partner max 3 µM) | 0.0039 | 0.0172 | 0.0109 | 0.0354 | -0.0232 | 0.0285 | 0.125 |  | -0.401 | -0.0159 | -0.0016 | -0.0149 | 0.0155 | 0.619
3 | Cc1c2c(nn1C)CSCc1cc(n(C)n1)CSc1cc(c3ccccc3c1)OCCCc1c(C(=O)O)n(C)c3c-2c(Cl)ccc13 [AZD5991] + Cn1cnc2c(F)c(Nc3ccc(Br)cc3Cl)c(C(=O)NOCCO)cc21 [Selumetinib] (first compound max 1 µM, 7x7, partner max 3 µM) | 0.02 | -0.0265 | -0.0474 |  | -0.0049 | 0.0484 | 0.0399 | -0.0063 | 0.0516 | 0.0102 | -0.007 | -0.0054 | -0.0123 | 
4 | Cc1cc2ncnn2cc1Nc1ncc2c(n1)n(C1CCOCC1)c(=O)n2C [AZD7648] + C=CCn1c(=O)c2cnc(Nc3ccc(N4CCN(C)CC4)cc3)nc2n1-c1cccc(C(C)(C)O)n1 [AZD1775] (first compound max 10 µM, partner max 1 µM) | -0.0211 | -0.0959 | 0.0061 |  | 0.008 | -0.0094 | -0.0027 | 0.0203 | -0.035 | -0.0702 | -0.0696 | -0.0041 | -0.0048 | 
5 | Cc1cc2ncnn2cc1Nc1ncc2c(n1)n(C1CCOCC1)c(=O)n2C [AZD7648] + CCN(CCO)CCCOc1ccc2c(Nc3cc(CC(=O)Nc4cccc(F)c4)[nH]n3)ncnc2c1 [AZD2811] (first compound max 10 µM, 7x7, partner max 1 µM) | -0.0393 | 0.0609 | -0.0199 |  | 0.0304 | 0.0154 | -0.017 | 0.0407 | 0.0756 | -0.073 | 0.0364 | 0.0172 | 0.127 | 
6 | Cc1cc2ncnn2cc1Nc1ncc2c(n1)n(C1CCOCC1)c(=O)n2C [AZD7648] + CN(C)CCCOc1ccc(-c2ccc3ncc4c(c3c2)n(C2CCOCC2)c(=O)n4C)cn1 [AZD0156] (first compound max 10 µM, 7x7, partner max 1 µM) | -0.0104 | -0.0339 | 0.0001 |  | 0.0277 | 0.0029 | 0.0381 | 0.0143 | -0.0164 | -0.0183 | -0.016 | -0.0217 | 0.0127 | 
7 | Cc1cc2ncnn2cc1Nc1ncc2c(n1)n(C1CCOCC1)c(=O)n2C [AZD7648] + C[C@@H]1COCCN1C2=NC(=NC(=C2)C3(CC3)[S@](=N)(=O)C)C4=C5C=CNC5=NC=C4 [AZD6738] (first compound max 10 µM, 7x7, partner max 10 µM) | 0.0081 | -0.1 | 0.0353 |  | -0.0102 | 0.0136 | 0.0131 | 0.0471 | -0.0178 | -0.0195 | -0.0169 | -0.0049 | -0.001 | 
8 | Cc1cc2ncnn2cc1Nc1ncc2c(n1)n(C1CCOCC1)c(=O)n2C [AZD7648] + O=C(c1cc(Cc2n[nH]c(=O)c3ccccc23)ccc1F)N1CCN(C(=O)C2CC2)CC1 [Olaparib] (first compound max 10 µM, 7x7, partner max 10 µM) | -0.0323 | -0.0398 | -0.0563 |  | -0.0502 | -0.02 | -0.0511 | -0.0331 | -0.0027 | -0.031 | -0.0322 | -0.0441 | -0.0096 | 
9 | COc1cccc2c1C(=O)c1c(O)c3c(c(O)c1C2=O)C[C@@](O)(C(=O)CO)C[C@@H]3O[C@H]1C[C@H](N)[C@H](O)[C@H](C)O1 [Doxorubicin] + Cc1cc2ncnn2cc1Nc1ncc2c(n1)n(C1CCOCC1)c(=O)n2C [AZD7648] (first compound max 1 µM, 7x7, partner max 10 µM) | 0.0233 | 0.0461 | 0.0083 |  | 0.0556 | 0.0172 | 0.108 | 0.093 | 0.0656 | 0.0535 | 0.0415 | 0.0909 | 0.101 | 
10 | COc1cccc(OCCCN)c1-c1cc(Nc2cnc(C#N)cn2)n[nH]1 [Prexasertib] + C=CCn1c(=O)c2cnc(Nc3ccc(N4CCN(C)CC4)cc3)nc2n1-c1cccc(C(C)(C)O)n1 [AZD1775] (first compound max 1 µM, partner max 1 µM) | 0.0679 | 0.079 | -0.024 |  | 0.083 | 0.186 | 0.0104 | 0.071 | 0.0481 | 0.1 | 0.105 | 0.0225 | 0.138 | 
11 | COc1cccc(OCCCN)c1-c1cc(Nc2cnc(C#N)cn2)n[nH]1 [Prexasertib] + CCc1c2c(nc3ccc(O)cc13)-c1cc3c(c(=O)n1C2)COC(=O)[C@]3(O)CC [SN-38] (first compound max 1 µM, 7x7, partner max 0.3 µM) | -0.0308 | -0.0222 | -0.0347 | 0.0846 | -0.0124 | 0.111 | -0.0507 | -0.0125 | -0.0258 | -0.0333 | -0.0064 | -0.0193 | -0.006 | 0.806
12 | COc1cccc(OCCCN)c1-c1cc(Nc2cnc(C#N)cn2)n[nH]1 [Prexasertib] + CN(C)CCCOc1ccc(-c2ccc3ncc4c(c3c2)n(C2CCOCC2)c(=O)n4C)cn1 [AZD0156] (first compound max 1 µM, 7x7, partner max 1 µM) | 0.0099 | 0.0116 | -0.0039 |  | -0.0194 | 0.016 | 0.009 | -0.0039 | 0.0036 | -0.0227 | -0.0869 | 0.041 | 0.0086 | 
13 | COc1cccc(OCCCN)c1-c1cc(Nc2cnc(C#N)cn2)n[nH]1 [Prexasertib] + C[C@@H]1COCCN1C2=NC(=NC(=C2)C3(CC3)[S@](=N)(=O)C)C4=C5C=CNC5=NC=C4 [AZD6738] (first compound max 1 µM, 7x7, partner max 10 µM) | 0.0251 | 0.0042 | -0.0018 |  | 0.103 | 0.0117 | 0.0092 | -0.0259 | -0.0455 | 0.0015 | -0.0739 | -0.0136 | 0.0096 | 
14 | COc1cccc(OCCCN)c1-c1cc(Nc2cnc(C#N)cn2)n[nH]1 [Prexasertib] + Cc1cc2ncnn2cc1Nc1ncc2c(n1)n(C1CCOCC1)c(=O)n2C [AZD7648] (first compound max 1 µM, 7x7, partner max 10 µM) | -0.0122 | -0.0193 | -0.0474 |  | -0.0164 | 0.0044 | -0.0255 | -0.0227 | 0.0204 | -0.0344 | -0.0591 | -0.0584 | 0.0071 | 
15 | COc1cccc(OCCCN)c1-c1cc(Nc2cnc(C#N)cn2)n[nH]1 [Prexasertib] + O=C(c1cc(Cc2n[nH]c(=O)c3ccccc23)ccc1F)N1CCN(C(=O)C2CC2)CC1 [Olaparib] (first compound max 1 µM, 7x7, partner max 10 µM) | -0.008 | -0.0232 | -0.0217 |  | 0.0121 | -0.0135 | -0.0141 | -0.0422 | -0.0051 | -0.0795 | -0.0123 | -0.0445 | -0.0311 | 
16 | COc1cc2c(cc1OCCCCCOc1cc3c(cc1OC)C(=O)N1C=C(C)C[C@H]1C=N3)N=C[C@@H]1CC(C)=CN1C2=O [SG3199] + O=C(c1cc(Cc2n[nH]c(=O)c3ccccc23)ccc1F)N1CCN(C(=O)C2CC2)CC1 [Olaparib] (first compound max 0.001 µM, 7x7, partner max 10 µM) | -0.0306 | -0.0347 | -0.0424 |  | -0.0523 | -0.0264 | -0.0645 | -0.0181 | -0.0314 | -0.0321 | -0.0277 | -0.0488 | -0.0058 | 
17 | CCc1c2c(nc3ccc(O)cc13)-c1cc3c(c(=O)n1C2)COC(=O)[C@]3(O)CC [SN-38] + CN(C)CCCOc1ccc(-c2ccc3ncc4c(c3c2)n(C2CCOCC2)c(=O)n4C)cn1 [AZD0156] (first compound max 0.3 µM, 7x7, partner max 1 µM) | -0.0039 | -0.024 | -0.0142 |  | 0.0669 | -0.0222 | 0.0647 | 0.0533 | 0.0191 | 0.098 | -0.0279 | -0.0108 | 0.0312 | 
18 | CC(=O)Nc1cccc(-n2c(=O)n(C3CC3)c(=O)c3c(Nc4ccc(I)cc4F)n(C)c(=O)c(C)c32)c1 [Trametinib] + Cc1nc(-c2cn3c(n2)-c2ccc(-c4cnn(C(C)(C)C(N)=O)c4)cc2OCC3)n(C(C)C)n1 [Taselisib] (first compound max 1 µM, 7x7, partner max 10 µM) | 0.0657 | 0.119 | 0.136 |  | 0.124 | 0.127 | 0.182 | 0.0411 | 0.134 | 0.178 | 0.0402 | -0.0083 | 0.0464 | 
19 | CC1(C)CCC(CN2CCN(c3ccc(C(=O)NS(=O)(=O)c4ccc(NCC5CCOCC5)c([N+](=O)[O-])c4)c(Oc4cnc5[nH]ccc5c4)c3)CC2)=C(c2ccc(Cl)cc2)C1 [Venetoclax] + C1CN(CCC1(C(=O)N[C@@H](CCO)C2=CC=C(C=C2)Cl)N)C3=NC=NC4=C3C=CN4 [Capivasertib] (first compound max 1 µM, 7x7, partner max 3 µM) | -0.0183 | -0.0218 | -0.0306 | -0.0783 | -0.0801 | -0.0065 | 0.0141 | 0.0153 | -0.0284 | -0.0679 | -0.029 | -0.0494 | 0.0415 | 0.151
